This data set in a line: Forced degradation of the phenylalkyl carbamate as a function of pH (pH 9 carbonate buffer, LC-MS). The format is physicochemical. The conditions noted are these: room temperature. The procedure:
Under certain conditions of elevated temperature and relative humidity, such as, 25° C. and 40% RH, 25° C. and 60% RH, 25° C. and 80% RH, 45° C. and 20% RH, 45° C. and 40% RH, 45° C. and 60% RH, 45° C. and 80% RH, or 40° C. and75% RH and the like, an exposed compound or composition may be subject to degradation.
As shown in Scheme A, a sample of Compound A1, the carbamic acid (2R)-2-(2-chloro-phenyl)-2-hydroxy-ethyl ester compound of formula (Ib), was dissolved in a pH 9 carbonate buffer.
The sample was analyzed by LC-MS under reverse phase conditions using positive ion ESI and APCI detection.

For the molecule `NC(=O)OC[C@H](O)c1ccccc1Cl` [Compound A1, carbamic acid (2R)-2-(2-chloro-phenyl)-2-hydroxy-ethyl ester], the Degradation in solution result is given as “degradation products had formed in appreciable amounts”.

The record behind these values is patent US20080090903A1, “PHENYLALKYL CARBAMATE COMPOSITIONS” (priority 2006, published 2008).
